US9708336B2, “Metallo-beta-lactamase inhibitors” (priority 2014, dated 2017)
Like-named read-outs stand apart in the source and are kept apart here.

Experiments:
[1] = molecular target: NDM-1 (Klebsiella pneumoniae, UniProt C7C422); experiment: biochemical; type: biochemical
[2] = molecular target: IMP-1 (Serratia marcescens, UniProt P52699); experiment: biochemical; type: biochemical; conditions: read-out: IMP-1 IC50
[3] = molecular target: VIM-1 (Pseudomonas aeruginosa (strain ATCC 15692 / DSM 22644 / CIP 104116 / JCM 14847 / LMG 12228 / 1C / PRS 101 / PAO1), UniProt A0A0F7KYQ8); experiment: Enzyme activity: determination of IC50, fluorescence assay with CCF2-FA substrate (VIM-1); type: biochemical
[4] = system: Serratia marcescens expressing IMP-1 (CL5741); experiment: Antibiotic potentiation activity: synergistic concentration (MITC95) with imipenem, OD600 growth; type: cell-based; conditions: for Serratia marcescens expressing IMP-1 (CL5741) MITC95: concentration giving 95% inhibition of bacterial growth
Experimental: (§1) Antibiotic Potentiation Activity: Determination of Synergistic Concentration
(§2) The bacterial strains tested included the clinical strains Escherichia coli expressing NDM-1 (CLB30005, CLB30016), Serratia marcescens expressing IMP-1 (CL5741), and Klebsiella pneumoniae expressing VIM-1 (IHMA599644) Inhibitor activity was measured in the presence and absence of imipenem in a 384-well microplate.
(§3) The clinical strains CLB30016, CL5741 and IHMA599644 were grown on trypticase soy agar containing 5% sheep's blood. The clinical strain CLB30005 was grown on Mueller Hinton broth agar containing 8 ug/ml imipenem. The bacteria on agar plates were incubated at 35° C. with humidity overnight. The following day, individual colonies from each clinical strain were picked and resuspended in 5 ml saline to attain an OD600 of 0.14, 0.11, 0.15 and 0.13, for CLB30005, CLB30016, CL5741 and IHMA599644, respectively. These were further diluted 1:100 into 1.1×CAMHB and used to inoculate the test wells as described below.
(§4) Imipenem in 10 mM 3-(N-morpholino)propanesulfonic acid (MOPS, pH 7) was stored in single use aliquots at −80° C. […] On the day of the assay, 4 μl of antibiotic was added to 45 ul of bacteria followed by 1 μl of test compound and mixed by pipetting and with an orbital shaker. The concentration of antibiotic used in the assay was 4 μg/ml, or optionally 1 μg/ml. Microplates were covered and incubated at 35° C. for 22 hours to 24 hours. At the end of the incubation, absorbance was determined using a spectrophotometer.

[5] = system: Escherichia coli expressing NDM-1 (CLB30016); experiment: as above; type: cell-based; conditions: for Escherichia coli expressing NDM-1 (CLB 30016) MITC95: concentration giving 95% inhibition of bacterial growth
Experimental: as §1, §2, §3, §4

[6] = system: Klebsiella pneumoniae expressing VIM-1 (IHMA599644); experiment: as above; type: cell-based; conditions: for Klebsiella pneumoniae expressing VIM-1 (IHMA 599644) MITC95: concentration giving 95% inhibition of bacterial growth
Experimental: as §1, §2, §3, §4

[7] = fluorescence assay with CCF2-FA substrate, read-out: NDM-1 IC50
[8] = fluorescence assay with CCF2-FA substrate
[9] = fluorescence assay with CCF2-FA substrate, read-out: VIM-1 IC50
[10] = CL5741 (IMP-1), 95% inhibition of bacterial growth
[11] = CLB30016 (NDM-1), 95% inhibition of bacterial growth
[12] = IHMA599644 (VIM-1), 95% inhibition of bacterial growth
[13] = VIM-1 IC50, fluorescence assay with CCF2-FA substrate
[14] = NDM-1 enzyme, CCF2-FA substrate, read-out: NDM-1 IC50
[15] = IMP-1 enzyme, CCF2-FA substrate
[16] = VIM-1 IC50, VIM-1 enzyme, CCF2-FA substrate
[17] = Serratia marcescens CL5741 (IMP-1), 95% growth inhibition
[18] = (CLB30016, NDM-1), 95% growth inhibition
[19] = Klebsiella pneumoniae IHMA599644 (VIM-1), 95% growth inhibition
[20] = VIM-1 enzyme, CCF2-FA substrate, read-out: VIM-1 IC50
[21] = NDM-1 enzyme, CCF2-FA fluorescence assay, read-out: NDM-1 IC50
[22] = IMP-1 enzyme, CCF2-FA fluorescence assay
[23] = VIM-1 enzyme, CCF2-FA fluorescence assay, read-out: VIM-1 IC50
[24] = Serratia marcescens expressing IMP-1 (CL5741), 95% growth inhibition
[25] = Escherichia coli expressing NDM-1 (CLB30016), 95% growth inhibition
[26] = Klebsiella pneumoniae expressing VIM-1 (IHMA599644), 95% growth inhibition

Chain of NDM-1 (C7C422 whole entry, looked up, species assumed): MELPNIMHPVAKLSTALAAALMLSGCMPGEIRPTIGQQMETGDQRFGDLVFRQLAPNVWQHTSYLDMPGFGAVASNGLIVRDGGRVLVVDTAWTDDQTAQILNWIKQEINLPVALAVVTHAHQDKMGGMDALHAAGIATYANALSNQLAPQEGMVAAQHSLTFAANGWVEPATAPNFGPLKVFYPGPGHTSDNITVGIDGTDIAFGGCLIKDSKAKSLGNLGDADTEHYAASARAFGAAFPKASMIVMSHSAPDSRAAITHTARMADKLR
Chain of IMP-1 (P52699 whole entry, looked up): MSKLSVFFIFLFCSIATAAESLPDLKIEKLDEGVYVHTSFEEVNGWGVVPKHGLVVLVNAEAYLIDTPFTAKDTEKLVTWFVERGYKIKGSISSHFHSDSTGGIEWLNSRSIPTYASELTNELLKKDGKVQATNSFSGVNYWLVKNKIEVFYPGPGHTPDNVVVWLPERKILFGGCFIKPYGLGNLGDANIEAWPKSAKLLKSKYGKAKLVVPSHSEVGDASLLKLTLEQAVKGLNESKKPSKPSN

Row | Structure (SMILES) | IC50 [1, 7] [nM] | IC50 [2, 8] [nM] | IC50 [1, 14] [nM] | IC50 [2, 15] [nM] | Serratia marcescens MITC95 [4, 17] [µM] | Escherichia coli MITC95 [5, 18] [µM] | Klebsiella pneumoniae MITC95 [6, 19] [µM] | IC50 [1, 21] [nM] | IC50 [2, 22] [nM] | Serratia marcescens MITC95 [4, 24] [µM] | Escherichia coli MITC95 [5, 25] [µM] | Klebsiella pneumoniae MITC95 [6, 26] [µM] | other results
1 | NS(=O)(=O)c1c(C(F)(F)F)ccc(C2CCC3(CCNCC3)CC2)c1-c1nnn[nH]1 [Example 833, 3-(3-azaspiro[5.5]undecan-9-yl)-2-(1H-tetrazol-5-yl)-6-(trifluoromethyl)benzenesulfonamide] | 0.74 | 4.31 |  |  |  |  |  |  |  |  |  |  | IC50 [3, 9]: 3.33 nM; Serratia marcescens MITC95 [4, 10]: 3.125 µM; Escherichia coli MITC95 [5, 11]: 1.563 µM; Klebsiella pneumoniae MITC95 [6, 12]: 12.5 µM
2 | NS(=O)(=O)c1nccc(N2CCC(N3CCNCC3)CC2)c1-c1nnn[nH]1 [Example 227, 4-(4-piperazin-1-ylpiperidin-1-yl)-3-(1H-tetrazol-5-yl)pyridine-2-sulfonamide] | 888 | 7070 |  |  |  |  |  |  |  |  |  |  | IC50 [3, 9]: 261 nM; Serratia marcescens expressing IMP-1 (CL5741) MITC95 [4]: 75 µM; Escherichia coli expressing NDM-1 (CLB 30016) MITC95 [5]: 3.125 µM; Klebsiella pneumoniae expressing VIM-1 (IHMA 599644) MITC95 [6]: 6.25 µM
3 | Cc1ccncc1-c1ccc(C(F)(F)F)c(S(N)(=O)=O)c1-c1nnn[nH]1 [Example 747, 3-(4-methylpyridin-3-yl)-2-(1H-tetrazol-5-yl)-6-(trifluoromethyl)benzenesulfon-amide] | 5.72 | 11.2 |  |  |  |  |  |  |  |  |  |  | IC50 [3, 13]: 0.866 nM; Serratia marcescens MITC95 [4, 10]: 25 µM; Escherichia coli MITC95 [5, 11]: 6.25 µM; Klebsiella pneumoniae MITC95 [6, 12]: 12.5 µM
4 | NS(=O)(=O)c1c(CC[C@H]2CC[C@H](N)CC2)ccc(-c2ccc(C3CNC3)cc2)c1-c1nnn[nH]1 [Example 599, 4-(2-((1r,4s)-4-aminocyclohexyl)ethyl)-4′-(azetidin-3-yl)-2-(1H-tetrazol-5-yl)-[1,1′-biphenyl]-3-sulfonamide] |  |  | 2.12 | 6.43 | 3.125 | 1.563 | 3.125 |  |  |  |  |  | IC50 [3, 16]: 5.33 nM
5 | N=C(N)NC[C@H]1CC[C@H](c2ccc(C(F)(F)F)c(S(N)(=O)=O)c2-c2nnn[nH]2)CC1 [Example 503, 3-(trans 4-(guanidinomethyl)cyclohexyl)-2-(1H-tetrazol-5-yl)-6-(trifluoromethyl)benzenesulfonamide] |  |  |  | 4.2 | 0.1953 | 0.1953 | 0.7813 |  |  |  |  |  | IC50 [1]: 1.14 nM; IC50 [3, 20]: 0.183 nM
6 | NS(=O)(=O)c1c(C(F)(F)F)ccc(-c2ccc(C3CCN(CC4CNC4)CC3)cc2)c1-c1nnn[nH]1 [Example 671, 4′-[1-(azetidin-3-ylmethyl)piperidin-4-yl]-2-(1H-tetrazol-5-yl)-4-(trifluoromethyl)biphenyl-3-sulfonamide] |  |  | 4.13 | 2 | 1.563 | 1.172 | 37.5 |  |  |  |  |  | IC50 [3, 20]: 5.65 nM
7 | NC(=O)c1ccc2cc(-c3cccc(S(N)(=O)=O)c3-c3nn[nH]n3)ccc2n1 [Example 288, 6-(3-sulfamoyl-2-(2H-tetrazol-5-yl)phenyl)quinoline-2-carboxamide] |  |  |  |  |  |  |  | 1.31 | 88.9 | 9.375 | 1.563 | 75 | IC50 [3, 23]: 9.78 nM
8 | NS(=O)(=O)c1cccc(-c2ccc(CN[C@@H]3CC[C@H](O)C3)cc2)c1-c1nnn[nH]1 [Example 369, 4′-({[(1R,3S)-3-hydroxycyclopentyl]amino}methyl)-2-(1H-tetrazol-5-yl)biphenyl-3-sulfonamide] |  |  |  |  |  |  |  | 25.2 | 728 | 12.5 | 3.125 | 200 | IC50 [3, 23]: 667 nM
9 | CN(c1ccnc(S(N)(=O)=O)c1-c1nnn[nH]1)C1CCCCC1 [Example 232, 4-[cyclohexyl(methyl)amino]-3-(1H-tetrazol-5-yl)pyridine-2-sulfonamide] | 892 | 7640 |  |  |  |  |  |  |  |  |  |  | IC50 [3, 13]: 166 nM; Serratia marcescens expressing IMP-1 (CL5741) MITC95 [4]: >200 µM; Escherichia coli expressing NDM-1 (CLB 30016) MITC95 [5]: 50 µM; Klebsiella pneumoniae expressing VIM-1 (IHMA 599644) MITC95 [6]: 150 µM
10 | NS(=O)(=O)c1c(C(F)(F)F)ccc(-c2cccc(N3CCCC(O)C3)c2)c1-c1nnn[nH]1 (stereo not drawn) [Example 739, 3′-(3-hydroxypiperidin-1-yl)-2-(1H-tetrazol-5-yl)-4-(trifluoromethyl)biphenyl-3-sulfonamide] |  |  | 3.84 | 6.82 | 25 | 25 | >200 |  |  |  |  |  | IC50 [3, 20]: 2.77 nM
11 | NS(=O)(=O)c1c(C(F)(F)F)ccc(-c2ccc(C3CN(CCC4CCNCC4)C3)cc2)c1-c1nnn[nH]1 [Example 803, 4′-[1-(2-piperidin-4-ylethyl)azetidin-3-yl]-2-(1H-tetrazol-5-yl)-4-(trifluoromethyl)biphenyl-3-sulfonamide] | 4.87 | 13 |  |  |  |  |  |  |  |  |  |  | IC50 [3, 13]: 13.2 nM; Serratia marcescens MITC95 [4, 10]: 6.25 µM; Escherichia coli MITC95 [5, 11]: 6.25 µM; Klebsiella pneumoniae MITC95 [6, 12]: 100 µM
12 | CNCCN(C)c1ccc(-c2cccc(S(N)(=O)=O)c2-c2nnn[nH]2)cn1 [Example 637, 3-[6-[methyl-[2-(methylamino)ethyl]amino]-3-pyridyl]-2-(1H-tetrazol-5-yl)benzenesulfonamide] |  |  | 52 | 925 | 25 | 2.344 | 50 |  |  |  |  |  | IC50 [3, 16]: 453 nM
13 | N=C(N)N1CC(c2ccc(-c3ccc(C(F)(F)F)c(S(N)(=O)=O)c3-c3nn[nH]n3)cc2)C1 [Example 434, 3-(3′-sulfamoyl-2′-(2H-tetrazol-5-yl)-4′-(trifluoromethyl)-[1,1′-biphenyl]-4-yl)azetidine-1-carboximidamide] |  |  |  |  |  |  |  | 1.78 | 1.85 | 0.09375 | 0.543 | 0.7656 | IC50 [3, 23]: 0.175 nM
14 | NS(=O)(=O)c1c(CCC2CNC2)ccc(-c2ccc(C3CCNCC3)cc2)c1-c1nn[nH]n1 [Example 466, 4-(2-(azetidin-3-yl)ethyl)-4′-(piperidin-4-yl)-2-(2H-tetrazol-5-yl)-[1,1′-biphenyl]-3-sulfonamide] |  |  |  |  |  |  |  | 10.5 | 54.6 | 1.563 | 0.7813 | 1.563 | IC50 [3, 23]: 3.72 nM
15 | NC(=O)C1CN(Cc2ccc(-c3cccc(S(N)(=O)=O)c3-c3nnn[nH]3)cc2)C1 [Example 362, 1-{[3′-sulfamoyl-2′-(1H-tetrazol-5-yl)biphenyl-4-yl]methyl}azetidine-3-carboxamide] |  |  |  |  |  |  |  | 11.3 | 116 | 3.125 | 0.7813 | 75 | IC50 ([3]; VIM-1 IC50, VIM-1 enzyme, CCF2-FA fluorescence assay): 494 nM
16 | NCCCN1CCC(c2ccc(-c3cccc(S(N)(=O)=O)c3-c3nnn[nH]3)cc2)CC1 [Example 613, 3-[4-[1-(3-aminopropyl)-4-piperidyl]phenyl]-2-(1H-tetrazol-5-yl)benzenesulfonamide] |  |  | 14.1 | 36.3 | 0.543 | 0.25 | 18.75 |  |  |  |  |  | IC50 [3, 20]: 253 nM
